Assay results: patent US20240382488A1, “NEK7 INHIBITORS” (Halia Therapeutics, Inc., priority 2021, published 2024)

molecular target: T1, full-length recombinant human Nek7 (Homo sapiens, UniProt Q8TDX7); experiment: NEK7 Enzymatic Assay; assay type: biochemical; conditions: radiometric [32P]-ATP kinase assay, casein substrate 20 μM, Nek7 70 nM, 2 hours room temperature
T1 construct: full-length recombinant human Nek7; GST (N); purchased SignalChem N09-10G; host or cells: Sf9 insect cells (baculovirus)
T1 sequence (Q8TDX7 whole entry): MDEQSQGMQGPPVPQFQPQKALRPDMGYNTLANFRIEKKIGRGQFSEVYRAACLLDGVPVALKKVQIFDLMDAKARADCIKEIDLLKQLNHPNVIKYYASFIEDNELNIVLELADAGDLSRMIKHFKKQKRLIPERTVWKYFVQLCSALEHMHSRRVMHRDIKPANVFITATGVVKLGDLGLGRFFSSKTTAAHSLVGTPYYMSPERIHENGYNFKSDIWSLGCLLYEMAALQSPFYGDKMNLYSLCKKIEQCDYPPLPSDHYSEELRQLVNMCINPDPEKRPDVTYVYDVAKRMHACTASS
Protocol: Casein substrate (from bovine milk, hydrolyzed and partially dephosphorylated mixture of α, β and κ caseins, obtained from Sigma Aldrich, catalogue #C4765, diluted in distilled water to a final concentration of 1 mg/mL, assay concentration 20 μM) and full-length recombinant human Nek7 (expressed by baculovirus in Sf9 insect cells using a N-terminal GST tag, obtained from SignalChem, catalogue #N09-10G, 0.1 μg/μL, assay concentration 70 nM) were mixed in assay buffer (20 mM Hepes pH 7.5, 10 mM MgCl2, 1 mM EGTA, 0.02% Brij35, 0.02 mg/ml BSA, 0.1 mM […], 2 mM DTT, 1% DMSO). Compounds of interest (in DMSO, serial 3-fold dilution from 10 μM to 0.5 nM) or control (1% DMSO) were dispensed into the kinase reaction mixture by Acoustic technology (Echo550; nanoliter range). After incubation at room temperature for 20 minutes, the kinase reaction was initiated by addition of [^32P]-ATP (Specific activity 10 μCi/μl) and the mixture was incubated at room temperature for 2 hours. The reaction was then stopped by spotting the reaction mixture on strips of phosphocellulose P81 paper. Following washing, the radioactivity of the P81 paper was measured and kinase activity data were expressed as the percent remaining kinase activity in test samples compared to vehicle (dimethyl sulfoxide) reactions. IC50 values and curve fits were obtained using Prism (GraphPad Software).
Representative compounds were tested for inhibitory activity against NEK7 according to the procedure described above.

IC50, 151 to 300 nM:
CC(C)n1cc(-c2ccc3c(c2F)CCN3C(=O)Cc2ccc(F)c(C(F)(F)F)c2)c2c(N)ncnc21 [Compound I-13, 1-(5-(4-amino-7-isoprop-yl-7H-pyrrolo[2,3-d]pyr-imidin-5-yl)-4-fluoroind-olin-1-yl)-2-(4-fluoro-3-(trifluoromethyl)phenyl)-ethan-1-one]

IC50, > 1500 nM:
CC(C)n1nc(-c2ccc3c(c2F)CCN3C(=O)Cc2ccc(F)cc2)c2c(N)ncnc21 [Compound I-3, 1-(5-(4-amino-1-iso-propyl-1H-pyrazolo[3,4-d]pyrimidin-3-yl)-4-fluoroindolin-1-yl)-2-(4-fluorophenyl)ethan-1-one]
CN1CCN(Cc2ccc(C(F)(F)F)cc2CC(=O)N2CCc3c2ccc(-c2cn(C4CC4)c4ncnc(N)c24)c3F)CC1 [Compound I-30, 1-(5-(4-amino-7-cyclo-propyl-7H-pyrrolo[2,3-d]pyrimidin-5-yl)-4-fluoroindolin-1-yl)-2-(2-((4-methylpiperazin-1-yl)methyl)-5-(trifluoro-methyl)phenyl)ethan-1-one]
CN1CCN(Cc2cc(CC(=O)N3CCc4c3ccc(-c3cn(C5CC5)c5ncnc(N)c35)c4F)cc(C(F)(F)F)c2)CC1 [Compound I-32, 1-(5-(4-amino-7-cyclo-propyl-7H-pyrrolo[2,3-d]pyrimidin-5-yl)-4-fluoroindolin-1-yl)-2-(3-((4-methylpiperazin-1-yl)methyl)-5-(tri-fluoromethyl)phenyl)-ethan-1-one]

IC50, 301 to 500 nM:
CN1CCN(Cc2ccc(CC(=O)N3CCc4c3ccc(-c3cn(C5CC5)c5ncnc(N)c35)c4F)cc2C(F)(F)F)CC1 [Compound I-25, 1-(5-(4-amino-7-cyclo-propyl-7H-pyrrolo[2,3-d]pyrimidin-5-yl)-4-fluoroindolin-1-yl)-2-(4-((4-methylpiperazin-1-yl)methyl)-3-(tri-fluoromethyl)phenyl)-ethan-1-one]

IC50, < 150 nM:
Nc1ncnc2c1c(-c1ccc3c(c1Cl)CCN3C(=O)Cc1cc(C(F)(F)F)ccc1F)nn2C1CC1 [Compound I-15, 1-(5-(4-amino-1-cyclo-propyl-1H-pyrazolo[3,4-d]pyrimidin-3-yl)-4-chloroindolin-1-yl)-2-(2-fluoro-5-(trifluoro-methyl)phenyl)ethan-1-one]
Nc1ncnc2c1c(-c1ccc3c(c1F)CCN3C(=O)Cc1cc(C(F)(F)F)ccc1F)cn2CCO [Compound I-18, 1-(5-(4-amino-7-(2-hydroxyethyl)-7H-pyr-rolo[2,3-d]pyrimidin-5-yl)-4-fluoroindolin-1-yl)-2-(2-fluoro-5-(tri-fluoromethyl)phenyl)-ethan-1-one]
Nc1ncnc2c1c(-c1ccc3c(c1F)CCN3C(=O)Cc1cc(C(F)(F)F)ccc1F)nn2CCO [Compound I-19, 1-(5-(4-amino-1-(2-hydroxyethyl)-1H-pyr-azolo[3,4-d]pyrimidin-3-yl)-4-fluoroindolin-1-yl)-2-(2-fluoro-5-(tri-fluoromethyl)phenyl)-ethan-1-one]
Nc1ncnc2c1c(-c1ccc3c(c1F)CCN3C(=O)Cc1cccc(C(F)(F)F)n1)cn2C1CC1 [Compound I-20, 1-(5-(4-amino-7-cyclo-propyl-7H-pyrrolo[2,3-d]pyrimidin-5-yl)-4-fluoroindolin-1-yl)-2-(6-(trifluoromethyl)pyr-idin-2-yl)ethan-1-one]
Cc1cccc(CC(=O)N2CCc3c2ccc(-c2cn(C4CC4)c4ncnc(N)c24)c3F)n1 [Compound I-21, 1-(5-(4-amino-7-cyclo-propyl-7H-pyrrolo[2,3-d]pyrimidin-5-yl)-4-fluoroindolin-1-yl)-2-(6-methylpyridin-2-yl)-ethan-1-one]
Nc1ncnc2[nH]cc(-c3ccc4c(c3F)CCN4C(=O)Cc3cc(C(F)(F)F)ccc3F)c12 [Compound I-22, 1-(5-(4-amino-7H-pyr-rolo[2,3-d]pyrimidin-5-yl)-4-fluoroindolin-1-yl)-2-(2-fluoro-5-(tri-fluoromethyl)phenyl)-ethan-1-one]
CC(C)(O)Cn1cc(-c2ccc3c(c2F)CCN3C(=O)Cc2cc(C(F)(F)F)ccc2F)c2c(N)ncnc21 [Compound I-23, 1-(5-(4-amino-7-(2-hydroxy-2-methylprop-yl)-7H-pyrrolo[2,3-d]-pyrimidin-5-yl)-4-fluoroindolin-1-yl)-2-(2-fluoro-5-(trifluoro-methyl)phenyl)ethan-1-one]
COCCn1nc(-c2ccc3c(c2F)CCN3C(=O)Cc2cc(C(F)(F)F)ccc2F)c2c(N)ncnc21 [Compound I-24, 1-(5-(4-amino-1-(2-methoxyethyl)-1H-pyrazolo[3,4-d]pyrim-idin-3-yl)-4-fluoroindo-lin-1-yl)-2-(2-fluoro-5-(trifluoromethyl)phen-yl)ethan-1-one]
COCCn1cc(-c2ccc3c(c2F)CCN3C(=O)Cc2cc(C(F)(F)F)ccc2F)c2c(N)ncnc21 [Compound I-26, 1-(5-(4-amino-7-(2-methoxyethyl)-7H-pyr-rolo[2,3-d]pyrimidin-5-yl)-4-fluoroindolin-1-yl)-2-(2-fluoro-5-(tri-fluoromethyl)phenyl)-ethan-1-one]
Nc1ncnc2c1c(-c1ccc3c(c1F)CCN3C(=O)Cc1cc(C(F)(F)F)ccc1F)cn2C1CC(O)C1 (centres unmarked) [Compound I-27, 1-(5-(4-amino-7-(3-hydroxycyclobutyl)-7H-pyrrolo[2,3-d]pyrimidin-5-yl)-4-fluoroindolin-1-yl)-2-(2-fluoro-5-(tri-fluoromethyl)phenyl)-ethan-1-one]
CN1CCC(n2cc(-c3ccc4c(c3F)CCN4C(=O)Cc3cc(C(F)(F)F)ccc3F)c3c(N)ncnc32)CC1 [Compound I-28, 1-(5-(4-amino-7-(1-methylpiperidin-4-yl)-7H-pyrrolo[2,3-d]pyr-imidin-5-yl)-4-fluoro-indolin-1-yl)-2-(2-fluoro-5-(trifluorometh-yl)phenyl)ethan-1-one]
Nc1nccc2c1c(-c1ccc3c(c1F)CCN3C(=O)Cc1cc(C(F)(F)F)ccc1F)nn2C1CC1 [Compound I-29, 1-(5-(4-amino-1-cyclo-propyl-1H-pyrazolo[4,3-c]pyridin-3-yl)-4-fluoro-indolin-1-yl)-2-(2-fluoro-5-(trifluoromethyl)phen-yl)ethan-1-one]
CN1CCCC(n2cc(-c3ccc4c(c3F)CCN4C(=O)Cc3cc(C(F)(F)F)ccc3F)c3c(N)ncnc32)C1 (centres unmarked) [Compound I-31, 1-(5-(4-amino-7-(1-methylpiperidin-3-yl)-7H-pyrrolo[2,3-d]pyr-imidin-5-yl)-4-fluoroin-dolin-1-yl)-2-(2-fluoro-5-(trifluoromethyl)phen-yl)ethan-1-one]
CN1CC(n2cc(-c3ccc4c(c3F)CCN4C(=O)Cc3cc(C(F)(F)F)ccc3F)c3c(N)ncnc32)C1 [Compound I-33, 1-(5-(4-amino-7-(1-methylazetidin-3-yl)-7H-pyrrolo[2,3-d]pyr-imidin-5-yl)-4-fluoroin-dolin-1-yl)-2-(2-fluoro-5-(trifluoromethyl)phen-yl)ethan-1-one]
Nc1ncnc2c1c(-c1ccc3c(c1F)CCN3C(=O)Cc1cc(C(F)(F)F)ccc1F)cn2CCC(=O)O [Compound I-34, 3-(4-amino-5-(4-fluoro-1-(2-(2-fluoro-5-(tri-fluoromethyl)phenyl)-acetyl)indolin-5-yl)-7H-pyrrolo[2,3-d]pyrimidin-7-yl)propanoic acid]
